From article PMC8421423, “Cellular model system to dissect the isoform-selectivity of Akt inhibitors” (Nature Communications, 2021)
Several values for one entry are separate records, joined by “and”; a condition that tells them apart may be missing. Equal entries are not always repeated. Where two headings read alike, the source gives them in different places. One block for each molecule: values may come before it.

Assays:
Akt3 [1] = molecular target: T1, Akt3 (Homo sapiens, UniProt Q9Y243); assay: STK HTRF KinEASE activity-based assay (IC50)
T1 sequence (Q9Y243 whole entry): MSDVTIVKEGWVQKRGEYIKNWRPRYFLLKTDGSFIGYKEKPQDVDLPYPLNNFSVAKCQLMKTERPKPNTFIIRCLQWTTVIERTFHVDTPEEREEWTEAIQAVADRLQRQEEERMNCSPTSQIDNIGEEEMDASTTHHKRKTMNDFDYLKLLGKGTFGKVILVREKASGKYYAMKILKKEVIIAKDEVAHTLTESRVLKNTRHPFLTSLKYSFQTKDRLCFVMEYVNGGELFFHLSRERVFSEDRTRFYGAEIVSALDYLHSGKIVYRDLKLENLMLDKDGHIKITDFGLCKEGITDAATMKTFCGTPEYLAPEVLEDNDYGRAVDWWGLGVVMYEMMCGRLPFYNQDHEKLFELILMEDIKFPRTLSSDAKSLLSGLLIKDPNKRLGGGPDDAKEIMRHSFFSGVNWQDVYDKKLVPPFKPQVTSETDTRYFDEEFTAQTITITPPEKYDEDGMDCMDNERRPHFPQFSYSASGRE

Akt3 [2] = molecular target: T1, Akt3; assay: PhosphoSens continuous fluorometric kinetic enzyme assay
Description: (§1) By addition of either 8 nM Akt1, 2 nM Akt2, or 5 nM Akt3 (final concentrations) the reactions were initiated. […] Afterwards the kobs-values were plotted versus the inhibitor concentrations [I] and then fit to the following hyperbolic Eq.

Akt2 [3] = molecular target: T2, Akt2 (Homo sapiens, UniProt P31751); assay: STK HTRF KinEASE activity-based assay (IC50)
T2 sequence (P31751 whole entry): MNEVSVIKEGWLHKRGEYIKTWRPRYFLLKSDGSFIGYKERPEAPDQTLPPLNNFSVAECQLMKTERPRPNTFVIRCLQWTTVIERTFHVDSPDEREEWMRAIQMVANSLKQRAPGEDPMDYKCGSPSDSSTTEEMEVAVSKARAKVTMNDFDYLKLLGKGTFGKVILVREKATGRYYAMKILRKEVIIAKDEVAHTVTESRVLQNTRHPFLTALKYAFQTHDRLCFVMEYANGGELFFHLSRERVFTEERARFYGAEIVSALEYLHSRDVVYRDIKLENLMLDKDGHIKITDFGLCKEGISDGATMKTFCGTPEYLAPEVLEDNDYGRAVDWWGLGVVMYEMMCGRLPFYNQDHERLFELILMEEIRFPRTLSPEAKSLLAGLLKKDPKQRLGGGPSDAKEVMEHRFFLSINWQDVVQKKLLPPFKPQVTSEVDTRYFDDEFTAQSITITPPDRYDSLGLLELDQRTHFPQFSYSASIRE

Akt2 [4] = molecular target: T2, Akt2; assay: PhosphoSens continuous fluorometric kinetic enzyme assay
Description: as §1

Ba/F3^myr-Akt1 cells = assay: CellTiter-Glo cell viability assay; details: for Log ratio EC50 [Akt] / EC50 [Akt], Akt1 / Akt2: cell viability assay Ba/F3 myr-Akt cells, log units
Akt1 [5] = molecular target: T3, Akt1 (Homo sapiens, UniProt P31749); assay: STK HTRF KinEASE activity-based assay (IC50); details: for Log ratio IC50 [Akt] / IC50 [Akt], Akt1 / Akt2: biochemical activity based assay, log units
T3 sequence (P31749 whole entry): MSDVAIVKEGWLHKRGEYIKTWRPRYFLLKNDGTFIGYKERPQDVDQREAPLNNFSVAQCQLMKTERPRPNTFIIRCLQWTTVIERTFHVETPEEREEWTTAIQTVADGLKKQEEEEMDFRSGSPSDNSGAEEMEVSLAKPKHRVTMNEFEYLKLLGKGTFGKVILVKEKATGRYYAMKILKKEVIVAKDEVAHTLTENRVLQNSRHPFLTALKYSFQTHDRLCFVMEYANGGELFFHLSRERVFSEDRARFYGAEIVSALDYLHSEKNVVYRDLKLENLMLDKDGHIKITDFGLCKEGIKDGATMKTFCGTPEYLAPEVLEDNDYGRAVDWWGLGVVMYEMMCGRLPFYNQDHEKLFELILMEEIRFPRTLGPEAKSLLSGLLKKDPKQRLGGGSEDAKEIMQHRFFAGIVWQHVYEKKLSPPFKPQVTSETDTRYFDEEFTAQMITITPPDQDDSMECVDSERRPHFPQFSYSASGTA

Ba/F3^myr-Akt2 cells = assay: CellTiter-Glo cell viability assay
Ba/F3^myr-Akt3 cells = assay: CellTiter-Glo cell viability assay; details: for Log ratio EC50 [Akt] / EC50 [Akt], Akt3 / Akt2: cell viability assay Ba/F3 myr-Akt cells, log units
parental Ba/F3 cells = assay: CellTiter-Glo cell viability assay; format: cell-based, murine
Akt1 [6] = molecular target: T3, Akt1; assay: PhosphoSens continuous fluorometric kinetic enzyme assay
Description: as §1

[7] = HTRF IC50 Akt3, individual determinations, single replicates
[8] = IC50 Akt3, HTRF, ATP at KM, 1 h preincubation
[9] = HTRF IC50 Akt2, Mean, mean of replicates
[10] = HTRF IC50 Akt2, individual determinations, single replicates
[11] = IC50 Akt2, HTRF, ATP at KM, 1 h preincubation
[12] = Ki Akt2, Mean, mean of replicates
[13] = Ki Akt2, individual determinations, single replicates
[14] = read-out: kinact Akt2, individual determinations, single replicates
[15] = Mus musculus, read-out: CTG BaF3myr-Akt1, individual determinations, single replicates
[16] = read-out: CTG BaF3myr-Akt1, individual determinations, single replicates
[17] = HTRF IC50 Akt1, Mean, mean of replicates
[18] = HTRF IC50 Akt1, individual determinations, single replicates
[19] = IC50 Akt1, HTRF, ATP at KM, 1 h preincubation
[20] = Mus musculus, read-out: CTG BaF3myr-Akt2, Mean, mean of replicates
[21] = read-out: CTG BaF3myr-Akt2, individual determinations, single replicates
[22] = Mus musculus, read-out: CTG BaF3myr-Akt3, Mean, mean of replicates
[23] = Mus musculus, read-out: CTG BaF3myr-Akt3, individual determinations, single replicates
[24] = read-out: CTG BaF3myr-Akt3, individual determinations, single replicates
[25] = Mus musculus, BaF3, parental cells, mean of replicates, read-out: CTG BaF3, Mean
[26] = Mus musculus, BaF3, parental cells, single replicates, read-out: CTG BaF3, individual determinations
[27] = parental cells, single replicates, read-out: CTG BaF3, individual determinations

IC50 (Akt3 [1]; [7]): 233 nM and 416 nM and 225 nM and 214 nM
IC50 (Akt3 [1]; [8]): 272 ± 84 nM
Ki (Akt3 [2]; Ki Akt3): 64 ± 4 nM
Ki (Akt3 [2]; Ki Akt3, Mean, mean of replicates): 63.8 nM
Ki (Akt3 [2]; Ki Akt3, individual determinations, single replicates): 62.6 nM and 69.3 nM and 59.4 nM
kinact/KI (Akt3 [2]; read-out: kinact /Ki Akt3): 8000 ± 1000 M⁻¹ s⁻¹
kinact/KI (Akt3 [2]; read-out: kinact /Ki Akt3, individual determinations, single replicates): 7000 M⁻¹ s⁻¹
kinact (Akt3 [2]; read-out: kinact Akt3): 0.000517 s⁻¹
kinact (Akt3 [2]; read-out: kinact Akt3, Mean, mean of replicates): 0.000517 s⁻¹
kinact (Akt3 [2]; read-out: kinact Akt3, individual determinations, single replicates): 0.000433 s⁻¹
kinact /Ki Akt3, individual determinations (Akt3 [2]; single replicates): 0.009
kinact Akt3, individual determinations (Akt3 [2]; single replicates): 0.037 min⁻¹ and 0.031 min⁻¹
IC50 (Akt2 [3]; [9]): 98.5 nM
IC50 (Akt2 [3]; [10]): 92.9 nM and 124 nM and 104 nM
IC50 (Akt2 [3]; [11]): 99 ± 6 nM
Ki (Akt2 [4]; Ki Akt2): 21 ± 5 nM
Ki (Akt2 [4]; [12]): 21.3 nM
Ki (Akt2 [4]; [13]): 27.2 nM and 15.6 nM
kinact/KI (Akt2 [4]; read-out: kinact /Ki Akt2): 12000 ± 5000 M⁻¹ s⁻¹
kinact (Akt2 [4]; read-out: kinact Akt2): 0.000233 s⁻¹
kinact (Akt2 [4]; [14]): 0.000267 s⁻¹
kinact Akt2, individual determinations (Akt2 [4]; single replicates): 0.017 min⁻¹ and 0.009 min⁻¹
EC50 (Ba/F3^myr-Akt1 cells; Mus musculus, read-out: CTG BaF3myr-Akt1, Mean, mean of replicates): 19700 nM
EC50 (Ba/F3^myr-Akt1 cells; [15]): 21200 nM
EC50 (Ba/F3^myr-Akt1 cells; [16]): 13300 nM and 24600 nM
IC50 (Akt1 [5]; [17]): 1800 nM
IC50 (Akt1 [5]; [18]): 1820 nM and 2040 nM and 2470 nM and 858 nM
IC50 (Akt1 [5]; [19]): 2110 ± 268 nM
Log ratio IC50 [Akt] / IC50 [Akt], Akt1 / Akt2 (Akt1 [5]): 1.30
EC50 (Ba/F3^myr-Akt2 cells; [20]): 2230 nM
EC50 (Ba/F3^myr-Akt2 cells; Mus musculus, read-out: CTG BaF3myr-Akt2, individual determinations, single replicates): 2020 nM
EC50 (Ba/F3^myr-Akt2 cells; [21]): 2490 nM and 2190 nM
EC50 (Ba/F3^myr-Akt3 cells; [22]): 6520 nM
EC50 (Ba/F3^myr-Akt3 cells; [23]): 5550 nM
EC50 (Ba/F3^myr-Akt3 cells; [24]): 6270 nM and 7120 nM
SMILES: C=CC(=O)Nc1ccc2[nH]c(=O)n(C3CCN(Cc4ccc(-c5ncc(Cc6cccnc6)cc5-c5ccccc5)cc4)CC3)c2c1 [compound 21]
Log ratio EC50 [Akt] / EC50 [Akt], Akt1 / Akt2 (Ba/F3^myr-Akt1 cells): 0.95
Log ratio EC50 [Akt] / EC50 [Akt], Akt3 / Akt2 (Ba/F3^myr-Akt3 cells): -0.46
EC50 (parental Ba/F3 cells; [25]): 14700 nM
EC50 (parental Ba/F3 cells; [26]): 18200 nM
EC50 (parental Ba/F3 cells; [27]): 11700 nM and 14300 nM

IC50 (Akt3 [1]; HTRF IC50 Akt3, Mean, mean of replicates): 3050 nM
IC50 (Akt3 [1]; [7]): 2240 nM and 3090 nM and 3820 nM
IC50 (Akt3 [1]; [8]): 3050 ± 646 nM
IC50 (Akt2 [3]; [9]): 54.7 nM
IC50 (Akt2 [3]; [10]): 57.5 nM and 58.8 nM and 47.9 nM
IC50 (Akt2 [3]; [11]): 55 ± 5 nM
Ki (Akt2 [4]; Ki Akt2): 11 ± 1 nM
Ki (Akt2 [4]; [12]): 10.8 nM
Ki (Akt2 [4]; [13]): 9.4 nM and 10.7 nM and 12.2 nM
kinact/KI (Akt2 [4]; read-out: kinact /Ki Akt2): 23000 ± 7000 M⁻¹ s⁻¹
kinact/KI (Akt2 [4]; read-out: kinact /Ki Akt2, Mean, mean of replicates): 23000 M⁻¹ s⁻¹
kinact/KI (Akt2 [4]; read-out: kinact /Ki Akt2, individual determinations, single replicates): 30000 M⁻¹ s⁻¹
kinact (Akt2 [4]; read-out: kinact Akt2): 0.000233 s⁻¹
kinact (Akt2 [4]; [14]): 0.000283 s⁻¹
kinact Akt2, individual determinations (Akt2 [4]; single replicates): 0.013 min⁻¹ and 0.012 min⁻¹
EC50 (Ba/F3^myr-Akt1 cells; [15]): > 30000 nM
EC50 (Ba/F3^myr-Akt1 cells; [16]): 15100 nM and 22500 nM
IC50 (Akt1 [5]; [17]): 209 nM
IC50 (Akt1 [5]; [18]): 248 nM and 169 nM and 245 nM
IC50 (Akt1 [5]; [19]): 209 ± 40 nM
Log ratio IC50 [Akt] / IC50 [Akt], Akt1 / Akt2 (Akt1 [5]): 0.58
EC50 (Ba/F3^myr-Akt2 cells; [20]): 3680 nM
EC50 (Ba/F3^myr-Akt2 cells; [21]): 3180 nM and 5400 nM and 2460 nM
Ki (Akt1 [6]; Ki Akt1): 9 ± 3 nM
Ki (Akt1 [6]; Ki Akt1, Mean, mean of replicates): 8.74 nM
Ki (Akt1 [6]; Ki Akt1, individual determinations, single replicates): 12 nM and 5.9 nM and 8.3 nM
kinact/KI (Akt1 [6]; read-out: kinact /Ki Akt1): 26000 ± 1000 M⁻¹ s⁻¹
kinact/KI (Akt1 [6]; read-out: kinact /Ki Akt1, Mean, mean of replicates): 26000 M⁻¹ s⁻¹
kinact/KI (Akt1 [6]; read-out: kinact /Ki Akt1, individual determinations, single replicates): 26000 M⁻¹ s⁻¹
kinact (Akt1 [6]; read-out: kinact Akt1): 0.000233 s⁻¹
kinact (Akt1 [6]; read-out: kinact Akt1, individual determinations, single replicates): 0.000317 s⁻¹
kinact Akt1, individual determinations (Akt1 [6]; single replicates): 0.010 min⁻¹ and 0.013 min⁻¹
EC50 (Ba/F3^myr-Akt3 cells; [22]): 18800 nM
EC50 (Ba/F3^myr-Akt3 cells; [23]): 18300 nM
EC50 (Ba/F3^myr-Akt3 cells; [24]): 20700 nM and 18200 nM
SMILES: C=CC(=O)Nc1ccc2[nH]c(=O)n(C3CCN(Cc4ccc(-c5ncc(C(=O)Nc6cccnc6)cc5-c5ccccc5)cc4)CC3)c2c1 [compound 22]
Log ratio EC50 [Akt] / EC50 [Akt], Akt1 / Akt2 (Ba/F3^myr-Akt1 cells): 0.79
Log ratio EC50 [Akt] / EC50 [Akt], Akt3 / Akt2 (Ba/F3^myr-Akt3 cells): -0.71
EC50 (parental Ba/F3 cells; Mus musculus, BaF3, CTG, parental BaF3 cell line, read-out: EC50 BaF3): > 30000 nM
EC50 (parental Ba/F3 cells; [25]): > 30000 nM
EC50 (parental Ba/F3 cells; [26]): > 30000 nM
EC50 (parental Ba/F3 cells; [27]): > 30000 nM
